Results on 7 compounds are retold here after patent US20250092065A1, “2-(INDAZOL-5-YL)-6-(PIPERIDIN-4-YL)-1,7-NAPHTHYRIDINE DERIVATIVES AND RELATED COMPOUNDS AS MODULATORS FOR SPLICING NUCLEIC ACIDS AND FOR THE TREATMENT OF PROLIFERATIVE DISEASES” (REMIX THERAPEUTICS INC., priority 2022, published 2025).

Molecules are shown by their SMILES. Where two headings read alike, the source gives them in different places.

One data set has as its system MYB. The data set is described as follows: HiBiT protein abundance assay, MYB (K562 HiBiT knock-in). Type of data set: cell-based, human. As to conditions: HiBiT knock-in K562 cells, 24 hours, top dose 10 μM. In outline:
(§1)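 Tagged-protein levels were measured as HiBiT/LgBiT luminescence in lysed K562 knock-in cells exposed to serially diluted compound (up to 10 μM final) for 24 hours. A four-parameter logistic regression of control-normalized signal yielded the IC50.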

The test system of the next data set is HTT mRNA. The data set is described as follows: RT-qPCR splicing assay, HTT mRNA canonical (CJ) and alternative (AJ) junction. Type of data set: cell-based, human. As to conditions: Homo sapiens; for AC50: HTT alternative junction mRNA, read-out: HTT AJ (increase in AJ mRNA, AC50). In outline:
(§2)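 Splice switching quantified in compound-treated A673/K562 cells after 24 h exposure (top dose 10 uM, 3-fold steps, ≤0.25% DMSO), using CJ and AJ qPCR assays run at least in duplicate. RQ derived by 2^(−ΔΔCt), then percentage response.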
Background: In qPCR the cycle at which signal appears reflects the starting amount.

A further data set deals with HTT. In words: HiBiT protein abundance assay, HTT (K562 HiBiT knock-in). Type of data set: cell-based, human. The conditions noted are these: HiBiT knock-in K562 cells, 24 hours, top dose 10 μM. The essentials: as §1
On the technique in general: With HiBiT, luminescence reflects the tagged protein that the partner subunit can reach.

A further data set relates to Target C. In words: HiBiT protein abundance assay, Target C (K562 HiBiT knock-in). Type of data set: cell-based, human. As to conditions: HiBiT knock-in K562 cells, 24 hours, top dose 10 μM. In outline:
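K562 HiBiT knock-in cells (10000/well) were treated 24 h at 37° C with a 10-point 3-fold dilution series (top 10 μM final, ≤0.25% DMSO). HiBiT luminescence was read after lytic LgBiT detection. Percent response used unmodified K562 and DMSO-treated knock-in controls, and IC50 came from a four-parameter fit at 50% of untreated.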

The test system of the next data set is MYB mRNA. In words: RT-qPCR splicing assay, MYB mRNA canonical (CJ) and alternative (AJ) junction. Type of data set: cell-based, human. The conditions noted are these: Homo sapiens; for AC50: MYB alternative junction mRNA, read-out: MYB AJ (increase in AJ mRNA, AC50). In outline:
as §2

The next data set deals with K562 cells. In words: Cell Titer Glo 2.0 cell viability (toxicity) assay, K562. The conditions noted are these: 500 cells/well, 72 hours. On the technique in general: ATP-based viability assays read luminescence as a measure of living cells.
Another data set has as its system SMN2 mRNA. In words: RT-qPCR splicing assay, SMN2 mRNA. Type of data set: cell-based, human. As to conditions: Homo sapiens, canonical junction qPCR panel, Table 4; read-out: SMN2 IC50 (decrease in CJ mRNA levels). In outline:
as §2

Setting [1] is: HTT canonical junction mRNA, RT-qPCR, read-out: HTT CJ (decrease in CJ mRNA levels, IC50).
Where [2] appears, read: canonical junction qPCR panel, Table 4, read-out: HTT IC50 (decrease in CJ mRNA levels).
[3] abbreviates: MYB canonical junction mRNA, RT-qPCR, read-out: MYB CJ (decrease in CJ mRNA levels, IC50).
[4] abbreviates: canonical junction qPCR panel, Table 4, read-out: MYB IC50 (decrease in CJ mRNA levels).

Broadly, the IC50 is the concentration that gives 50% inhibition. As usually defined, the AC50 is the concentration giving half of the maximal activity seen.

Consider `Cn1cc2cc(-c3ccc4nc(N5CC[C@@H](NC6CC6)C5)ccc4n3)c(O)cc2n1` [Compound 198], for which the IC50 in the data set on MYB, with HTT mRNA (setting [1]), with HTT mRNA (setting [2]), in the data set with HTT, with Target C and in the data set on MYB mRNA (setting [3]) was under 100 nM in each case. In addition, the IC50 in the data set on MYB mRNA (setting [4]) and with SMN2 mRNA was under 100 nM each time. The AC50 with HTT mRNA (RT-qPCR) and in the data set with MYB mRNA (RT-qPCR) was under 100 nM in each case. Besides, in the data set on K562 cells, the “Effect of Exemplary Compounds on Cell Viability, K562” value (“Effect of Exemplary Compounds” for short) was “B (B represents 100-1000 nM)”.
Turning to `Cn1cc2nc(-c3ccc4nc(C5CCNCC5)ccc4n3)ccc2n1` [Compound 199], the IC50 with MYB, with HTT mRNA (setting [1]), in the data set with HTT mRNA (setting [2]), with HTT, in the data set with Target C and with MYB mRNA (setting [3]) was 100 to 1000 nM each time. In addition, the IC50 in the data set with MYB mRNA (setting [4]) and in the data set with SMN2 mRNA was 100 to 1000 nM in each case. Moreover, the AC50 in the data set with HTT mRNA (RT-qPCR) and in the data set on MYB mRNA (RT-qPCR) was 100 to 1000 nM each time. Moreover, in the data set on K562 cells, the “Effect of Exemplary Compounds” value is reported as “B (B represents 100-1000 nM)”.
On to `Cn1cc2cc(-c3ccc4nc(C5CCNCC5)ccc4n3)ncc2n1` [Compound 200], for which the IC50 in the data set with MYB, with HTT mRNA (setting [1]), with HTT mRNA (setting [2]), in the data set on HTT, in the data set on Target C and with MYB mRNA (setting [3]) was 1000 to 10000 nM throughout. In addition, the IC50 with MYB mRNA (setting [4]) and in the data set on SMN2 mRNA was 1000 to 10000 nM throughout. Also, the half-maximal activity concentration (AC50) in the data set on HTT mRNA (RT-qPCR) and in the data set with MYB mRNA (RT-qPCR) was 1000 to 10000 nM in each case. Further, the “Effect of Exemplary Compounds” value with K562 cells is on record as “C (C represents 1000-9999 nM)”.
`Cc1cn2cc(-c3ccc4nc(N5CCC(NC(C)(C)C)C5)ccc4n3)cc(C)c2n1` (centres unmarked) [Compound 201]: the IC50 with MYB was 100 to 1000 nM; in the data set with HTT mRNA (setting [1]) it was 100 to 1000 nM; with HTT mRNA (setting [2]) it was 100 to 1000 nM; in the data set with HTT, under 100 nM; in the data set on Target C, 100 to 1000 nM; in the data set with MYB mRNA (setting [3]) it was 100 to 1000 nM. Moreover, the IC50 in the data set on MYB mRNA (setting [4]) was 100 to 1000 nM; in the data set on SMN2 mRNA, under 100 nM. In addition, the AC50 with HTT mRNA (RT-qPCR) and with MYB mRNA (RT-qPCR) was 100 to 1000 nM throughout. Also, the “Effect of Exemplary Compounds” value in the data set with K562 cells was “B (B represents 100-1000 nM)”.
Take `Cn1cc2cc(-c3ccc4nc(N5CCC(NC(C)(C)C)C5)ccc4n3)c(O)c(F)c2n1` (centres unmarked) [Compound 202]: the IC50 with MYB, with HTT mRNA (setting [1]), in the data set with HTT mRNA (setting [2]), with HTT, with Target C and in the data set on MYB mRNA (setting [3]) was under 100 nM each time. The IC50 in the data set with MYB mRNA (setting [4]) and in the data set on SMN2 mRNA was under 100 nM in each case. Further, the AC50 in the data set on HTT mRNA (RT-qPCR) and in the data set on MYB mRNA (RT-qPCR) was under 100 nM in each case. Besides, in the data set with K562 cells, the “Effect of Exemplary Compounds” value is “A (A represents <100 nM)”.
`Cc1cn2nc(-c3ccc4nc(N5CCC(NC(C)(C)C)C5)ccc4n3)c(O)c2c(C)n1` (centres unmarked) [Compound 203]: the IC50 was under 100 nM with MYB; under 100 nM in the data set on HTT mRNA (setting [1]); under 100 nM in the data set on HTT mRNA (setting [2]); under 100 nM in the data set with HTT; under 100 nM with Target C; 100 to 1000 nM in the data set with MYB mRNA (setting [3]). Further, the IC50 in the data set on MYB mRNA (setting [4]) was 100 to 1000 nM; in the data set with SMN2 mRNA, under 100 nM. Further, the AC50 is under 100 nM with HTT mRNA (RT-qPCR) and 100 to 1000 nM in the data set on MYB mRNA (RT-qPCR). Moreover, in the data set on K562 cells, the “Effect of Exemplary Compounds” value is on record as “B (B represents 100-1000 nM)”.
`Cn1cc2cc(-c3ccc4nc(C5CCNCC5)ccc4n3)c(C#N)cc2n1` [Compound 204]: the IC50 in the data set on MYB, with HTT mRNA (setting [1]), in the data set on HTT mRNA (setting [2]), with HTT, in the data set on Target C and in the data set on MYB mRNA (setting [3]) was 1000 to 10000 nM in each case. Also, the IC50 in the data set on MYB mRNA (setting [4]) was in the range of 1000 to 10000 nM; with SMN2 mRNA it was 100 to 1000 nM. Also, the AC50 in the data set on HTT mRNA (RT-qPCR) and with MYB mRNA (RT-qPCR) was 1000 to 10000 nM throughout. For the same compound, the “Effect of Exemplary Compounds” value in the data set on K562 cells is on record as “D (D represents greater than 10 μM in K562 cells)”.
